Experiment [1] concerns the target Calcium/calmodulin-dependent protein kinase type II subunit beta (Homo sapiens) (UniProt Q13554). As to the kind of experiment: Inhibition of recombinant human CaMK2beta (1 to 315 residues) assessed as residual activity at 1 uM using […] incubated for 40 mins in presence of [gamma-33ATP] by scintillation counting based radiometry assay relative to control.

The target in experiment [2] is Calcium/calmodulin-dependent protein kinase type 1D (Homo sapiens) (UniProt Q8IU85). As to the kind of experiment: Inhibition of recombinant full length human CaMK1delta assessed as residual activity at 1 uM […] incubated for 40 mins in presence of [gamma-33ATP] by scintillation counting based radiometry assay relative to control.
In experiment [3] the target is Cyclin-dependent kinase 5/CDK5 activator 1 (Homo sapiens) (UniProt Q00535+Q15078). The experiment can be described thus: Inhibition of recombinant full length human CDK5/p25 assessed as residual activity at 1 uM using histone H1 as substrate incubated for 40 mins in presence of [gamma-33ATP] by scintillation counting based radiometry assay relative to control. Format: protein-complex assay.

Experiment [4] relates to CDK18/Cyclin Y (Homo sapiens), Q07002+Q8ND76 [T166M]. As to the kind of experiment: Inhibition of recombinant full length human CDK18 /cyclinY T166M mutant assessed as residual activity at 1 uM using YRRAAVPPSPSLS as substrate incubated for 40 mins in presence of [gamma-33ATP] by scintillation counting based radiometry assay relative to control. Format: protein-complex assay.

For experiment [5], the target named is Death-associated protein kinase 1 (Homo sapiens) (UniProt P53355). As to the kind of experiment: Inhibition of recombinant human DAPK1 (1 to 296 residues) assessed as residual activity at 1 uM KKLNRTLSFAEPG as substrate incubated 40 mins in presence of [gamma-33ATP] by scintillation counting based radiometry assay relative to control.
For experiment [6], the target named is Serine/threonine-protein kinase ICK (Homo sapiens) (UniProt Q9UPZ9). As to the kind of experiment: Inhibition of human ICK (1 to 312 residues) assessed as residual activity at 1 uM using RRRFRPASPLRGPPK as substrate after 40 mins by [gamma-33ATP] radiometric assay relative to control.
Experiment [7] addresses Mitogen-activated protein kinase 8 (Homo sapiens) (UniProt P45983). As to the kind of experiment: Inhibition of human JNK1alpha1 assessed as residual activity at 1 uM using ATF2 as substrate after 40 mins by [gamma-33ATP] radiometric assay relative to control.
Experiment [8] deals with Tyrosine-protein kinase Lck (Homo sapiens) (UniProt P06239). As to the kind of experiment: Inhibition of recombinant full length human LCK assessed as residual activity at 1 uM using KVEKIGEGTYGVVYK as substrate after 40 mins in presence of [gamma-33ATP] by scintillation counting based radiometry assay relative to control.
Experiment [9] deals with SRSF protein kinase 3 (Homo sapiens) (UniProt Q9UPE1). The experiment can be described thus: Inhibition of recombinant full-length human MSSK1 assessed as residual activity at 1 uM using ERMRPRKRQGSVRRRV as substrate measured after 40 mins in presence of [gamma33P]ATP by scintillation counting method relative to control.
Experiment [10] has as its target Serine/threonine-protein kinase 38-like (Homo sapiens) (UniProt Q9Y2H1). As to the kind of experiment: Inhibition of recombinant human NDR2 (83 to end residues) assessed as residual activity at 1 uM using RSRSRSRSRSRSRSR as substrate measured after 40 mins in presence of [gamma33P]ATP by scintillation counting method relative to control.
In experiment [11] the target is T1, cGMP-dependent protein kinase 1 (Homo sapiens) (UniProt Q13976).
T1 sequence (whole entry): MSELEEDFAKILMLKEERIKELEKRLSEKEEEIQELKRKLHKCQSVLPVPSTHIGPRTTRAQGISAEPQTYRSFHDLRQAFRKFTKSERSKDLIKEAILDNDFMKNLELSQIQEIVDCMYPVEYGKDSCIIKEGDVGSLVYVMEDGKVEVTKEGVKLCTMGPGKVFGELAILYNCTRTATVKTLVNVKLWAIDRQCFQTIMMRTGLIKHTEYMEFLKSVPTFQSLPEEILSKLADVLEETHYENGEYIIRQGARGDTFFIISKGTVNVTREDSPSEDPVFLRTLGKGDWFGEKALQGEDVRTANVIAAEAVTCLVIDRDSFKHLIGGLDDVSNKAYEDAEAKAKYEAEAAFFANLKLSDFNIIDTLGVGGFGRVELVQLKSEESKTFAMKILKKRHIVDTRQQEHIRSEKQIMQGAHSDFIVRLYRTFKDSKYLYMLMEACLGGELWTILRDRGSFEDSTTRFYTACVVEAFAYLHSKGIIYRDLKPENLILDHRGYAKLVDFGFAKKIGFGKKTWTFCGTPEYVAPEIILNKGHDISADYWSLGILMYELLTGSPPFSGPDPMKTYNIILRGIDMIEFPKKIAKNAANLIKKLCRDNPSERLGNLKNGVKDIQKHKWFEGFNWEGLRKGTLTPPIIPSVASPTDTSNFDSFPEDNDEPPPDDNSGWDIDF
The experiment can be described thus: Inhibition of recombinant full-length human PKG1alpha assessed as residual activity at 1 uM using RRRLSFAEPG as substrate measured after 40 mins in presence of [gamma33P]ATP by scintillation counting method relative to control.

Experiment [12] addresses Serine/threonine-protein kinase 25 (Homo sapiens) (UniProt O00506). The experiment can be described thus: Inhibition of human STK25 (1 to 308 residues) assessed as residual activity at 1 uM using RLGRDKYKTLRQIRQ as substrate measured after 40 mins in presence of [gamma33P]ATP by scintillation counting method relative to control.
In experiment [13] the test system is TGF-beta receptor type-1 (Homo sapiens), P36897 [T204D]. The experiment can be described thus: Inhibition of human TGFBR1 T204D mutant (200 to end residues) assessed as residual activity at 1 uM using casein as substrate measured after 40 mins in presence of [gamma33P]ATP by scintillation counting method relative to control.
For experiment [14], the target named is TGF-beta receptor type-2 (Homo sapiens) (UniProt P37173). The experiment can be described thus: Inhibition of human TGFBR2 (188 to end residues) assessed as residual activity at 1 uM using myelin basic protein as substrate measured after 120 mins in presence of [gamma33P]ATP by scintillation counting method relative to control.
Experiment [15] has as its system Angiopoietin-1 receptor (Homo sapiens), Q02763 [Q939H,Q940H,Y897S]. As to the kind of experiment: Inhibition of human Tie2 Q939H/Q940H/Y897S mutant (771 to end residues) assessed as residual activity at 1 uM using EFPIYDFLPAKKK as substrate measured after 40 mins in presence of [gamma33P]ATP by scintillation counting method relative to control.
The target of experiment [16] is Serine/threonine-protein kinase VRK2 (Homo sapiens) (UniProt Q86Y07). The experiment can be described thus: Inhibition of human VRK2 (1 to 336 residues) assessed as residual activity at 1 uM using casein as substrate measured after 40 mins in presence of [gamma33P]ATP by scintillation counting method relative to control.
The species named for the next experiment is Homo sapiens. The experiment can be described thus: Inhibition of recombinant full-length human PI3K p110delta/p85alpha N253S mutant at 1 uM assessed as residual activity at 1 uM using phosphatidylinositol-4, 5-bisphosphate as substrate measured after 40 mins by fluorescence assay.

The structures appear in SMILES notation.

Chain of Death-associated protein kinase 1 (Homo sapiens) (P53355 whole entry, looked up, the tested form may be a part): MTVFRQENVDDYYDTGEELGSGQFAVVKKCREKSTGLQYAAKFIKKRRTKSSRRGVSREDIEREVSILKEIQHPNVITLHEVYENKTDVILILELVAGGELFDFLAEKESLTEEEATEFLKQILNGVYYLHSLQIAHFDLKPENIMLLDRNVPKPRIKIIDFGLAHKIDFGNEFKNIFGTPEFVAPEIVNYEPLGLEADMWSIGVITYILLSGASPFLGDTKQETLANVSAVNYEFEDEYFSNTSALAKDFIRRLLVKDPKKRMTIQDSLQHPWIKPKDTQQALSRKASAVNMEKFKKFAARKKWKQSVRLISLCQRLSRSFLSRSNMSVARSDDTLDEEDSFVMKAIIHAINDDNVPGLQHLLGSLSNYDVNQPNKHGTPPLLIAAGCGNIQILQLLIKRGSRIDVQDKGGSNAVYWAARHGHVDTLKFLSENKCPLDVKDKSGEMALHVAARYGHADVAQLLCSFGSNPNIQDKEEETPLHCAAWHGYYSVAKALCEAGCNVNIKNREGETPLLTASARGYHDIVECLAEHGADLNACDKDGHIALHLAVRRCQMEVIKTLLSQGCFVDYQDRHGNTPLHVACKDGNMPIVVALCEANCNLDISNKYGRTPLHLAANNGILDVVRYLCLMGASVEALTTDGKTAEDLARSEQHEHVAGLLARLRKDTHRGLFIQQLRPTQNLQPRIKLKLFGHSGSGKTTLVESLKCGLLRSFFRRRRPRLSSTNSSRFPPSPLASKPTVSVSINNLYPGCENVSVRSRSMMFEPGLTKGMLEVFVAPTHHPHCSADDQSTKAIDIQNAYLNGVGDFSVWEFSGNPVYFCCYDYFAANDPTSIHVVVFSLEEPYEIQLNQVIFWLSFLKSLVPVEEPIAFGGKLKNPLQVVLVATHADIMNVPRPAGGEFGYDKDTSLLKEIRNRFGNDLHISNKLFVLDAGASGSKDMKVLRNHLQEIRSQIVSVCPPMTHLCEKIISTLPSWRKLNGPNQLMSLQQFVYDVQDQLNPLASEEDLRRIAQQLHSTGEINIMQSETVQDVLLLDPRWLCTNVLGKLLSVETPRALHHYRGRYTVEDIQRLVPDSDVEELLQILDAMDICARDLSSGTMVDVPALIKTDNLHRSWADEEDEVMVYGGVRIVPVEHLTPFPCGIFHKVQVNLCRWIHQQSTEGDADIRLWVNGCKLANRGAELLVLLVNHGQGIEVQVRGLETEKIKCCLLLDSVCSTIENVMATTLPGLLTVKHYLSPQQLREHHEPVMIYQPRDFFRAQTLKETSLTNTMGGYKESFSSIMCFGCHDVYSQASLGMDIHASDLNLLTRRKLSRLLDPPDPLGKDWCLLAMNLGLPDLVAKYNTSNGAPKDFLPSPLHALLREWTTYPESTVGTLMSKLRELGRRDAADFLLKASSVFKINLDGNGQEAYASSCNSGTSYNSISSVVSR
Chain of SRSF protein kinase 3 (Homo sapiens) (Q9UPE1 whole entry): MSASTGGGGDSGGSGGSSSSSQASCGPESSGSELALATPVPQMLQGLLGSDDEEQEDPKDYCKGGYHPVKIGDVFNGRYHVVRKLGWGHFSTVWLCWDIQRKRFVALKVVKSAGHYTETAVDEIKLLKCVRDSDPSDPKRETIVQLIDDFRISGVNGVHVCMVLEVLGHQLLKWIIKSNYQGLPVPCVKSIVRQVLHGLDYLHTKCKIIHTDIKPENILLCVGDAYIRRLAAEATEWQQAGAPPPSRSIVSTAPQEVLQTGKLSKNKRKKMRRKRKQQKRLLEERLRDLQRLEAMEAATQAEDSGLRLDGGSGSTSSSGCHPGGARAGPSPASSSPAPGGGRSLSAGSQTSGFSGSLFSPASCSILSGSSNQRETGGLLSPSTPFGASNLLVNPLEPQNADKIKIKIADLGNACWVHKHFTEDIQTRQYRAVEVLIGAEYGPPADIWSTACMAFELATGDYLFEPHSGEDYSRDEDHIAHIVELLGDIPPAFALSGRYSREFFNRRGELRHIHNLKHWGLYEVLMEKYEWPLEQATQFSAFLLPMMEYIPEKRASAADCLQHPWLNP
Chain of Serine/threonine-protein kinase 38-like (Homo sapiens) (Q9Y2H1 2-464 limits assumed): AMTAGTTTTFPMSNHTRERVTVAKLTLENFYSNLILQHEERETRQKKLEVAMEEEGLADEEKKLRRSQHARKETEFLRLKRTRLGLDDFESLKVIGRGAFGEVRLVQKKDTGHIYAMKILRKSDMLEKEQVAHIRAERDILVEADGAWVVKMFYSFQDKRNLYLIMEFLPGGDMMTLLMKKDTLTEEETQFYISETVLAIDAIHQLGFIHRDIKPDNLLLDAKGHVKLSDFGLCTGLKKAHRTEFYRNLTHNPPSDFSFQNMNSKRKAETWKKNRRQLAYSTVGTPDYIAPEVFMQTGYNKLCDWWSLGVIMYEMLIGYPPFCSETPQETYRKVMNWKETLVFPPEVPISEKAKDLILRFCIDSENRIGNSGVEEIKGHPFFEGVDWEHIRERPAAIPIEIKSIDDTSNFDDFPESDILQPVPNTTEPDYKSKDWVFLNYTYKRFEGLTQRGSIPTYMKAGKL
Chain of Mitogen-activated protein kinase 8 (Homo sapiens) (P45983 whole entry): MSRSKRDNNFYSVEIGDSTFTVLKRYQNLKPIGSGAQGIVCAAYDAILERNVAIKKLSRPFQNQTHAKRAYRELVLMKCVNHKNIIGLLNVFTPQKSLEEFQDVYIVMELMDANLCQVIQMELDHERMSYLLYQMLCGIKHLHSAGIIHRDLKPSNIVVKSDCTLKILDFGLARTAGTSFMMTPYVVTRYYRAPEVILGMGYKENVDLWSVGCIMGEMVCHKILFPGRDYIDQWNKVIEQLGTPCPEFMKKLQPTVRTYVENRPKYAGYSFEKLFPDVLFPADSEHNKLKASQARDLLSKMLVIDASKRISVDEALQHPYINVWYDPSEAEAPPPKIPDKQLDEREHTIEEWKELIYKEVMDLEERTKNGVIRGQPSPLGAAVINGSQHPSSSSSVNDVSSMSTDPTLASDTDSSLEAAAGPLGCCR
Chain of Angiopoietin-1 receptor (Homo sapiens), Q02763 [Q939H,Q940H,Y897S] (Q02763 whole entry Y897S/Q939H/Q940H, the tested form may be a part): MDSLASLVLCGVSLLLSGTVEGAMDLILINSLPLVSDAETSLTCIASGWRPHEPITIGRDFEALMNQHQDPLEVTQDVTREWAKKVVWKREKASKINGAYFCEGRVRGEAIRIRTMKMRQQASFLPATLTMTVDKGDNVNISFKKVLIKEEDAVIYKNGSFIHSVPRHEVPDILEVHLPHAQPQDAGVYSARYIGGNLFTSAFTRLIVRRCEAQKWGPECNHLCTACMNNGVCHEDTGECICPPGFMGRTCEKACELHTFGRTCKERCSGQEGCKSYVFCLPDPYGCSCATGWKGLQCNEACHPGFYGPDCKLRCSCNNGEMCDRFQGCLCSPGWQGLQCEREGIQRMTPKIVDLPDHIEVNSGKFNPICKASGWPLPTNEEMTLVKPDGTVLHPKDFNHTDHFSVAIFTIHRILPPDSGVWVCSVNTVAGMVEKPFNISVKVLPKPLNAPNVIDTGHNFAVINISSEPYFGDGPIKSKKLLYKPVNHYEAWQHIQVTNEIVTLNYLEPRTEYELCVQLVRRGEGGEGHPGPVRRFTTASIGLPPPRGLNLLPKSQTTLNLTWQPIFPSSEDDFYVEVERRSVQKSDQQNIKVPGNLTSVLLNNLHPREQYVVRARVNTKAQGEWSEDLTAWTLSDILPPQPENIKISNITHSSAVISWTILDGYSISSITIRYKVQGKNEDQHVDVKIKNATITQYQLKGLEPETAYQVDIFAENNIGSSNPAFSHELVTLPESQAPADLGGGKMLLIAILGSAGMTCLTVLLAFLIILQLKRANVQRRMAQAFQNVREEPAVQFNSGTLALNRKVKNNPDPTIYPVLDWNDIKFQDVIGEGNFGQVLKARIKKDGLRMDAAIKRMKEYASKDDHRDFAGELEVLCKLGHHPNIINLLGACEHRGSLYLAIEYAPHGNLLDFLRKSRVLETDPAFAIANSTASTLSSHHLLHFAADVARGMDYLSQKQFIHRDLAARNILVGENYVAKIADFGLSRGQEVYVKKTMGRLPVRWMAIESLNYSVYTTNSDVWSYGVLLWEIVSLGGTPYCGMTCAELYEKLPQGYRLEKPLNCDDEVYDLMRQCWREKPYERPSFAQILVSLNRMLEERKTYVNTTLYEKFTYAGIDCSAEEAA
Chain of Serine/threonine-protein kinase 25 (Homo sapiens) (O00506 whole entry, looked up, the tested form may be a part): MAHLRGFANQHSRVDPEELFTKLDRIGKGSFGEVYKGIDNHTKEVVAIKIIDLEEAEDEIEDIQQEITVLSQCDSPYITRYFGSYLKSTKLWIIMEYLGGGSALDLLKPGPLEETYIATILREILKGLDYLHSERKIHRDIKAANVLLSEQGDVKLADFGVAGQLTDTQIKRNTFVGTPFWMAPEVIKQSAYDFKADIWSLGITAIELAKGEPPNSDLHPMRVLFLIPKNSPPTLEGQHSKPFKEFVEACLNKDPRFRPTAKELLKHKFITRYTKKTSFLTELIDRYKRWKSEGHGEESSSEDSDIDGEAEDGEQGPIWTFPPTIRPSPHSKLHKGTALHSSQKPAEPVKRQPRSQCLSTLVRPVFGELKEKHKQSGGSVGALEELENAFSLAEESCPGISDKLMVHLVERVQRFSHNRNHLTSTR
Chain of Tyrosine-protein kinase Lck (Homo sapiens) (P06239 2-509 limits assumed): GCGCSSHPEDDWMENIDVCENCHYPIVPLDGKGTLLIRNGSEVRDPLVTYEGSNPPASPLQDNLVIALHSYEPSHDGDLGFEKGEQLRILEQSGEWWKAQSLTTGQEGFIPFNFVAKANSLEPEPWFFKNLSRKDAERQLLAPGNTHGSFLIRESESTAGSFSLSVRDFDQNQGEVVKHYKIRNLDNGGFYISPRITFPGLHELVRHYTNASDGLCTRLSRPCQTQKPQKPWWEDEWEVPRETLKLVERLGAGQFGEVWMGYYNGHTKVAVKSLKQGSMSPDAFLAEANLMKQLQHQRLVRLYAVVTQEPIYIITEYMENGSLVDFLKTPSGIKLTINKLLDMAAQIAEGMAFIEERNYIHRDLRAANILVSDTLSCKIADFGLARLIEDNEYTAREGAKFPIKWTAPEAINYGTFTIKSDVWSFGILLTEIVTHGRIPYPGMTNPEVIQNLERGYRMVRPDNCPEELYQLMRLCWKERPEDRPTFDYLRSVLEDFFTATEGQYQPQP

In the case of `C=CCOC(=O)c1cc(-c2ccc(/C=C3/NC(=S)NC3=O)o2)ccc1Cl`, the Activity in experiment [1] came to 74%; in experiment [2] it was 87%; in experiment [3], 58%; in experiment [4] it was 87%; in experiment [5] it was 92%; in experiment [6], 28%. For the same compound, the Activity in experiment [7] was found to be 99%; in [8] it was 86%; in experiment [9], 99%; in [10] it was 118%; in experiment [11], 93%; in experiment [12] it was 90%. Moreover, the Activity was 92% in experiment [13]; 90% in experiment [14]; 98% in [15]; 100% in experiment [16]; 94% in the experiment filed under Homo sapiens.
With `N=C1NC(=O)/C(=C\c2ccc(-c3cccc([N+](=O)[O-])c3)o2)S1`, the Activity amounted to 92% in experiment [1]; 93% in experiment [2]; 75% in [3]; 57% in experiment [4]; 84% in [5]; 18% in experiment [6]. Also, the Activity is 101% in experiment [7]; 89% in [8]; 96% in [9]; 92% in experiment [10]; 71% in [11]; 97% in [12]. In addition, the Activity in experiment [13] worked out at 111%; in experiment [14] it was 61%; in experiment [15], 103%; in [16] it was 101%; in the experiment filed under Homo sapiens, 98%.

(Values after ChEMBL document CHEMBL4334438, “Discovery of novel glycogen synthase kinase-3α inhibitors: Structure-based virtual screening, preliminary SAR and biological evaluation for treatment of acute myeloid leukemia” (Eur J Med Chem, 2019).)
